Source: US12058996B2, “High subzero cryopreservation” (The General Hospital Corporation, priority 2017, dated 2024)

What was measured:
[1] = system: Human Umbilical Vein Endothelial Cells (HUVEC); test: Cryostage freeze-thaw of endothelial cell-coated microchannels (cell attachment, membrane integrity); format: cell-based; settings: with Snomax
Procedure: Prior to coating with endothelial cells, microchannels were sonicated briefly (3 min in isopropanol; Branson 200, Branson Ultrasonics), and then rinsed with PBS. Channels were then coated with 1 mg/mL fibronectin (dissolved in sterile PBS, total of 10 μl) and incubated for 60 min at 37° C. After a priming step, HUVEC cells were trypsinized, counted, and re-suspended in EBM-2 complete media (˜10.0×10^6 cells per mL). Cells were subsequently introduced to the cell seeding port and incubated at 37° C. 5% CO2 for 30 min (FIG. 1A). Final constriction diameters of cellularized microchannels varied from ˜10 to 20 μm across the lengths of individual channels due to the presence of cellular nuclei along channel walls. Coated microchannels were then fed under continuous gravity flow using a pipet tip containing media and inserted into the delivery port to generate flow in the reverse direction from loading (FIG. 1A). Pipet tips (200 μl) filled with media provided an initial hydrostatic head of 2.5 cm H2O. Cells incubated at 37° C. 5% CO2 up to 3 days with daily replacement of tips with filled media before proceeding to experimentation. […] Control, unfrozen microchannels were stained with Calcein green (1:1000), Hoescht (H3570; 1:1000 v:v), and propidium iodide (4 μg/mL) for 20 min and imaged, while microchannels imaged prior to experimentation/freezing were only stained with Calcein green (1:1000). These experimental microchannels were subsequently stained after experimentation/freezing with Hoescht (H3570; 1:1000 v:v), and propidium iodide (4 μg/mL).
Endothelial cell-coated microchannels were prepared, and placed on the silver block of a FDCS196 cryostage (Linkam Scientific Instruments Ltd, London, UK), the temperature of which was controlled by the TMS 94 temperature controller with the accuracy of ±0.1° C. Microchannels bonded to glass slides were cut into individual devices so they would fit on the silver block of the Linkam cryostage. A PixeLINK PL-A662 camera (PixeLINK, Ottawa, Canada) was used to visualize ice formation and propagation. In all cases, ice nucleation temperature was recorded and ice propagation throughout the device was confirmed by direct visual inspection (FIG. 7). Prior to freezing, endothelial cell-coated microchannels in the 3-O-methyl-D-glucopyranose (3-OMG) experimental group were incubated with EBM-2 complete media supplemented with either 50 or 100 mM 3-OMG at 37° C. to promote intracellular transport of the glucose analog. Supplementation of 3-OMG in the basal media and incubation at 37° is an effective method for intracellular delivery of 3-OMG. […] Snomax (Snomax International, Englewood, CO, USA) was used as the model ice nucleator in this study (1 mg/mL). Microchannels were perfused with PBS containing ice nucleators and/or cryoprotectant agents for 10 min prior to beginning the cooling profile. During the freezing experiment, the temperature was first cooled at 10° C./min to 4° C. After thermal stabilization, a cooling rate of 1° C./min was applied until reaching the holding temperature. […] For microchannels which contained Snomax, ice was observed <−6° C. in all cases, and channels were cooled to −6, −10, or −20° C. At the lowest holding temperature, microchannels were held for 3-5 min before a rapid rewarming at +30° C./min (FIG. 1C). After rewarming, microchannels were stained with Hoescht (nuclear) and propidium iodide (membrane integrity) dissolved in EBM-2 complete media for 20 min and imaged, in which the cell membrane integrity was used as a discriminator of live and dead cells.
Cell attachment values were quantified by counting the total number of Hoechst positive cells (i.e. total number of cell nuclei) and dividing by the total number of channels (each device has maximum of 16 channels). Membrane integrity was quantified by counting the number of propidium iodide positive cells divided by the total number of Hoechst positive cells. […]

[2] = system: Human Umbilical Vein Endothelial Cells (HUVEC); test: Endothelial cell attachment with CPAs without freezing (FIG. 9); format: cell-based; settings: 100 mM 3-OMG, p=0.6995
Procedure: Prior to coating with endothelial cells, microchannels were sonicated briefly (3 min in isopropanol; Branson 200, Branson Ultrasonics), and then rinsed with PBS. Channels were then coated with 1 mg/mL fibronectin (dissolved in sterile PBS, total of 10 μl) and incubated for 60 min at 37° C. After a priming step, HUVEC cells were trypsinized, counted, and re-suspended in EBM-2 complete media (˜10.0×10^6 cells per mL). Cells were subsequently introduced to the cell seeding port and incubated at 37° C. 5% CO2 for 30 min (FIG. 1A). Final constriction diameters of cellularized microchannels varied from ˜10 to 20 μm across the lengths of individual channels due to the presence of cellular nuclei along channel walls. […]
Cell attachment values were quantified by counting the total number of Hoechst positive cells (i.e. total number of cell nuclei) and dividing by the total number of channels (each device has maximum of 16 channels). Membrane integrity was quantified by counting the number of propidium iodide positive cells divided by the total number of Hoechst positive cells. Cell attachment and membrane integrity are expressed as box-and-whiskers plots showing median, interquartile range, maxima, and minima (n=4-8). […]

[3] = system: livers (parenchyma and endothelial cells)
Source text: In the experiments, endothelial damage occurred as a result of the loading process of high viscosity solutions. This liver was not frozen and was only subjected to the loading protocol with 10% glycerol as the main cryoprotectant.
A stepwise loading protocol was preformed to address this issue. The liver was sampled for histology and endothelial analysis immediately after CPA loading. Thus, all livers presented were not frozen/stored and had the independent damage of the loading protocol only. Furthermore, the loading protocol was redesigned with special consideration for the impact of dramatic changes in osmolality between distinct phases of CPA loading. Thus, a step-wise loading protocol was finalized.
The stepwise loading protocol was tested in the following way: (1) “Loading 1” refers to the 3-OMG loading phase which is essential for intracellular delivery of this CPA. 3-OMG is loaded using the subnormothermic cocktail containing a William's E media base supplemented with heparin, hydrocortisone, insulin, etc.
First, livers were continuously perfused with either 50 or 100 mM 3-OMG at subnormothermic temperatures for 60 minutes (“Loading 1”) and were immediately sampled for histology.
After the experiment was stopped, livers were sampled for histology.

[4] = pH change of storage solution on freezing (phenol red); format: physicochemical; settings: phenol red in storage solution
Source text: The pH can change dramatically as a function of freezing and holding temperature. Depending on the components of the storage solution, the biologic sample can be exposed to an acidic or a basic environment. These changes can be determined by adding phenol red to the storage solution. […] This pH change is relevant and can affect the preservation media. To counter these fluctuations in pH, the goal is to introduce “counter ions” which can balance the pH change.

## CO[C@H]1[C@H](O)[C@@H](CO)OC(O)[C@@H]1O (stereo partly drawn) [3-OMG, 3-O-methyl-D-glucopyranose]
[1]; 50 mM 3-OMG, Thold −6° C.
  cell attachment: 33.2±9.1 cells/lane
  percent PI positive cells (membrane integrity): 7.4±3.7%
[1]; 50 mM 3-OMG, Thold −10° C.
  cell attachment: 15.1±8.2 cells/lane
  percent PI positive cells (membrane integrity): 38.1±7.5%
[1]; 100 mM 3-OMG, Thold −6° C.
  cell attachment: 31.4±6.6 cells/lane
  percent PI positive cells (membrane integrity): 7.3±2.8%
[1]; 100 mM 3-OMG, Thold −10° C.
  cell attachment: 33.6±8.8 cells/lane
  percent PI positive cells (membrane integrity): 20.5±12.4%
[2]
  cell attachment versus unfrozen controls without CPAs: no statistical significant difference

## OCC(O)CO [glycerol]
[3]
  cell death after loading that was not stepwise (FIG. 15A): majority of cell death evident in endothelial cells

## O=C([O-])O.[Na+] [sodium bicarbonate]
[4]
  pH change of solution as the result of freezing: became basic
